# Assay: Thermal tail-flick test on rats
# Assay type: in vivo, rat
# Settings: 3 mg/kg injection in saline, against placebo, TFL measured approximately every hour
# Procedure: Therapeutic Solutions: The compound 2 90 mg was dissolved in 30 ml of saline solution and the injection volume was calculated as 1 ml/kg to achieve 3 mg/kg of compound of Formula 31. The placebo solution was identical except it is devoid of any drug.
# Tail-Flick Test: The experimentation was started by selecting ten at least 90-100 days old and were all weighed to determine the volume of experimental and placebo solution. Each rat, was habituated for three days to handling and the tail flick procedure and without heat exposure. In the administration, each animal was only used for one day of experiments, and given only one dose of drug, or placebo solution. The technique of D'Amour and Smith (1941) relies on latency to flick of the tail from onset of a focused beam of intense light. This method, employed for decades, has now been augmented by the ability to monitor temperature at the site of exposure. Columbus Instruments model TF-2 model was warmed, on the day of the experiment, for at least 30 minutes. The intensity of the lamp was adjusted so that baseline tail-flick latency for rats is equal to approximately 2.0 seconds. The intensity was set to 40% as this was determined to be the ideal intensity from the intensity response curve. […] The baseline value was determined for each animal prior to injection. The TFL was measured approximately every hour. The semilog means were calculated.
smiles,measurement,value
CC12CC3CC(C)(C1)CC(NC(=O)C1(CN)CCCCC1)(C3)C2 [Formula 2],time course of antinociceptive effect in the thermal tail flick test (FIG. 1),antinociceptive effect

# Source: patent US20110306600A1, “NOVEL THERAPEUTIC COMPOUNDS” (Grunenthal GmbH, priority 2010, published 2011)
